Our source for the relative viability values is the supplement of paper PMC10307832.

Structures are written as SMILES.

The first assay relates to NCI-H1650. Description: relative viability (nuclei count vs DMSO), 5 days (fraction); higher = more cells survive. The note with it: first compound 8 µM. An outline of the steps:
(§1)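 Relative viability equals treated-well nuclei counts divided by vehicle-well nuclei counts. Counts came from 4× images of lung cancer cell lines grown in 1536-well plates for 5 days after pin-tool dosing on the day after seeding. Dosing used one drug alone or a fixed anchor-drug dose plus five library-drug doses (not always all listed) in √10 steps, and values are medians of duplicate plates.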
Regarding `CCCCCCCCCCCC1=C(O)C(=O)C=C(O)C1=O` [Embelin] + CC(=O)c1c(C)c2cnc(Nc3ccc(N4CCNCC4)cn3)nc2n(C2CCCC2)c1=O [Palbociclib] (partner 0.5 µM), the relative viability came to 0.354.

As to `CCCCCCCCCCCC1=C(O)C(=O)C=C(O)C1=O` [Embelin] + COc1cccc2cc(-c3nc([C@H]4CC[C@H](C(=O)O)CC4)n4ncnc(N)c34)[nH]c12 [OSI-027] (partner 0.5 µM), the relative viability was 0.598.

For `CCCCCCCCCCCC1=C(O)C(=O)C=C(O)C1=O` [Embelin] + Nc1nc2[nH]cc(CCc3ccc(C(=O)N[C@@H](CCC(=O)O)C(=O)O)cc3)c2c(=O)[nH]1 [Pemetrexed] (partner 0.2 µM), the relative viability is 0.358.

For the next assay, the system named is NCI-H2405. The description is as above. The note with it: first compound 0.08 µM. The essentials: as §1
`CCCCCCCCCCCC1=C(O)C(=O)C=C(O)C1=O` [Embelin] + CCNC(=O)c1noc(-c2cc(C(C)C)c(O)cc2O)c1-c1ccc(CN2CCOCC2)cc1 [Luminespib] (partner 0.01 µM): the relative viability came to 0.723.

`CCCCCCCCCCCC1=C(O)C(=O)C=C(O)C1=O` [Embelin] + Cc1nc(Nc2ncc(C(=O)Nc3c(C)cccc3Cl)s2)cc(N2CCN(CCO)CC2)n1 [Dasatinib] (partner 0.075 µM) had a relative viability of 0.238.

`CCCCCCCCCCCC1=C(O)C(=O)C=C(O)C1=O` [Embelin] + CC(=O)c1c(C)c2cnc(Nc3ccc(N4CCNCC4)cn3)nc2n(C2CCCC2)c1=O [Palbociclib] (partner 0.5 µM): the relative viability came out at 0.543.

`CCCCCCCCCCCC1=C(O)C(=O)C=C(O)C1=O` [Embelin] + COc1cccc2cc(-c3nc([C@H]4CC[C@H](C(=O)O)CC4)n4ncnc(N)c34)[nH]c12 [OSI-027] (partner 0.5 µM) registered a relative viability of 0.64.

`CCCCCCCCCCCC1=C(O)C(=O)C=C(O)C1=O` [Embelin] + Nc1nc2[nH]cc(CCc3ccc(C(=O)N[C@@H](CCC(=O)O)C(=O)O)cc3)c2c(=O)[nH]1 [Pemetrexed] (partner 0.2 µM) gave a relative viability of 1.09.

Still in this assay, the particulars now being: first compound 0.8 µM.
As to `CCCCCCCCCCCC1=C(O)C(=O)C=C(O)C1=O` [Embelin] + CCNC(=O)c1noc(-c2cc(C(C)C)c(O)cc2O)c1-c1ccc(CN2CCOCC2)cc1 [Luminespib] (partner 0.01 µM), the relative viability stood at 0.681.

As for `CCCCCCCCCCCC1=C(O)C(=O)C=C(O)C1=O` [Embelin] + Cc1nc(Nc2ncc(C(=O)Nc3c(C)cccc3Cl)s2)cc(N2CCN(CCO)CC2)n1 [Dasatinib] (partner 0.075 µM), the relative viability turned out to be 0.24.

Regarding `CCCCCCCCCCCC1=C(O)C(=O)C=C(O)C1=O` [Embelin] + CC(=O)c1c(C)c2cnc(Nc3ccc(N4CCNCC4)cn3)nc2n(C2CCCC2)c1=O [Palbociclib] (partner 0.5 µM), the relative viability is 0.575.

As for `CCCCCCCCCCCC1=C(O)C(=O)C=C(O)C1=O` [Embelin] + COc1cccc2cc(-c3nc([C@H]4CC[C@H](C(=O)O)CC4)n4ncnc(N)c34)[nH]c12 [OSI-027] (partner 0.5 µM), the relative viability stood at 0.665.

The compound `CCCCCCCCCCCC1=C(O)C(=O)C=C(O)C1=O` [Embelin] + Nc1nc2[nH]cc(CCc3ccc(C(=O)N[C@@H](CCC(=O)O)C(=O)O)cc3)c2c(=O)[nH]1 [Pemetrexed] (partner 0.2 µM) yielded a relative viability of 1.15.

The same assay, now with this note: first compound 2.53 µM.
`CCCCCCCCCCCC1=C(O)C(=O)C=C(O)C1=O` [Embelin] + CCNC(=O)c1noc(-c2cc(C(C)C)c(O)cc2O)c1-c1ccc(CN2CCOCC2)cc1 [Luminespib] (partner 0.01 µM): the relative viability came to 0.775.

Compound `CCCCCCCCCCCC1=C(O)C(=O)C=C(O)C1=O` [Embelin] + Cc1nc(Nc2ncc(C(=O)Nc3c(C)cccc3Cl)s2)cc(N2CCN(CCO)CC2)n1 [Dasatinib] (partner 0.075 µM) gave a relative viability of 0.178.

In turn, `CCCCCCCCCCCC1=C(O)C(=O)C=C(O)C1=O` [Embelin] + CC(=O)c1c(C)c2cnc(Nc3ccc(N4CCNCC4)cn3)nc2n(C2CCCC2)c1=O [Palbociclib] (partner 0.5 µM) had a relative viability of 0.511.

As for `CCCCCCCCCCCC1=C(O)C(=O)C=C(O)C1=O` [Embelin] + COc1cccc2cc(-c3nc([C@H]4CC[C@H](C(=O)O)CC4)n4ncnc(N)c34)[nH]c12 [OSI-027] (partner 0.5 µM), the relative viability came to 0.659.

As for `CCCCCCCCCCCC1=C(O)C(=O)C=C(O)C1=O` [Embelin] + Nc1nc2[nH]cc(CCc3ccc(C(=O)N[C@@H](CCC(=O)O)C(=O)O)cc3)c2c(=O)[nH]1 [Pemetrexed] (partner 0.2 µM), the relative viability was determined as 1.18.

Staying with this assay, now noted: first compound 8 µM.
As to `CCCCCCCCCCCC1=C(O)C(=O)C=C(O)C1=O` [Embelin] + CCNC(=O)c1noc(-c2cc(C(C)C)c(O)cc2O)c1-c1ccc(CN2CCOCC2)cc1 [Luminespib] (partner 0.01 µM), the relative viability turned out to be 0.738.

`CCCCCCCCCCCC1=C(O)C(=O)C=C(O)C1=O` [Embelin] + Cc1nc(Nc2ncc(C(=O)Nc3c(C)cccc3Cl)s2)cc(N2CCN(CCO)CC2)n1 [Dasatinib] (partner 0.075 µM): the relative viability stood at 0.215.

`CCCCCCCCCCCC1=C(O)C(=O)C=C(O)C1=O` [Embelin] + CC(=O)c1c(C)c2cnc(Nc3ccc(N4CCNCC4)cn3)nc2n(C2CCCC2)c1=O [Palbociclib] (partner 0.5 µM) showed a relative viability of 0.535.

For the compound `CCCCCCCCCCCC1=C(O)C(=O)C=C(O)C1=O` [Embelin] + COc1cccc2cc(-c3nc([C@H]4CC[C@H](C(=O)O)CC4)n4ncnc(N)c34)[nH]c12 [OSI-027] (partner 0.5 µM), the relative viability was 0.658.

With `CCCCCCCCCCCC1=C(O)C(=O)C=C(O)C1=O` [Embelin] + Nc1nc2[nH]cc(CCc3ccc(C(=O)N[C@@H](CCC(=O)O)C(=O)O)cc3)c2c(=O)[nH]1 [Pemetrexed] (partner 0.2 µM), the relative viability came out at 0.818.

A further assay relates to 201T. Described as above. The note with it: first compound 0.08 µM. An outline of the steps: as §1
The compound `CCCCCCCCCCCC1=C(O)C(=O)C=C(O)C1=O` [Embelin] + CCNC(=O)c1noc(-c2cc(C(C)C)c(O)cc2O)c1-c1ccc(CN2CCOCC2)cc1 [Luminespib] (partner 0.01 µM) had a relative viability of 0.987.

On to `CCCCCCCCCCCC1=C(O)C(=O)C=C(O)C1=O` [Embelin] + Cc1nc(Nc2ncc(C(=O)Nc3c(C)cccc3Cl)s2)cc(N2CCN(CCO)CC2)n1 [Dasatinib] (partner 0.075 µM), for which the relative viability turned out to be 0.562.

In turn, `CCCCCCCCCCCC1=C(O)C(=O)C=C(O)C1=O` [Embelin] + CC(=O)c1c(C)c2cnc(Nc3ccc(N4CCNCC4)cn3)nc2n(C2CCCC2)c1=O [Palbociclib] (partner 0.5 µM) registered a relative viability of 0.375.

Compound `CCCCCCCCCCCC1=C(O)C(=O)C=C(O)C1=O` [Embelin] + COc1cccc2cc(-c3nc([C@H]4CC[C@H](C(=O)O)CC4)n4ncnc(N)c34)[nH]c12 [OSI-027] (partner 0.5 µM) gave a relative viability of 0.72.

`CCCCCCCCCCCC1=C(O)C(=O)C=C(O)C1=O` [Embelin] + Nc1nc2[nH]cc(CCc3ccc(C(=O)N[C@@H](CCC(=O)O)C(=O)O)cc3)c2c(=O)[nH]1 [Pemetrexed] (partner 0.2 µM) displayed a relative viability of 0.347.

Staying with this assay, now noted: first compound 0.8 µM.
Compound `CCCCCCCCCCCC1=C(O)C(=O)C=C(O)C1=O` [Embelin] + CCNC(=O)c1noc(-c2cc(C(C)C)c(O)cc2O)c1-c1ccc(CN2CCOCC2)cc1 [Luminespib] (partner 0.01 µM) came in with a relative viability of 1.08.

The compound `CCCCCCCCCCCC1=C(O)C(=O)C=C(O)C1=O` [Embelin] + Cc1nc(Nc2ncc(C(=O)Nc3c(C)cccc3Cl)s2)cc(N2CCN(CCO)CC2)n1 [Dasatinib] (partner 0.075 µM) registered a relative viability of 0.641.

On to `CCCCCCCCCCCC1=C(O)C(=O)C=C(O)C1=O` [Embelin] + CC(=O)c1c(C)c2cnc(Nc3ccc(N4CCNCC4)cn3)nc2n(C2CCCC2)c1=O [Palbociclib] (partner 0.5 µM), for which the relative viability came to 0.377.
